From patent publication US7320984B2, “Remedies or preventives for urinary frequency or urinary incontinence and morphinan derivatives having nitrogen-containing heterocyclic group” (Toray Industries, Inc., priority 2002, dated 2008) come the findings set out here.

The first test has as its system rhythmic bladder contractions in rats. Kind of test: Inhibitory effect against rhythmic bladder contractions in rats. In kind it is in vivo. The settings on record: anesthetized female SD rats, intravenous, dose 0.003 mg/kg body weight. Here is the method: Inhibitory Effect Against Rhythmic Bladder Contractions in Rats
Female SD rats were anesthetized with an intraperitoneal administration of urethane (1.0 g/kg). A polyethylene tube was inserted from the urethra to the bladder and the tube was fixed by ligation. Then physiological saline was appropriately infused (infusion rate: about 0.2 ml/min., maximum: about 1.5 ml/animal) through the tube to cause rhythmic bladder contractions. The rhythmic bladder contractions were monitored by measuring the intravesical pressure through a polyethylene tube inserted into the bladder. After confirming that stable rhythmic bladder contractions occurred at least 10 times, a vehicle containing a prescribed dose of a test compound was intravenously administration at a dose of 1 ml/kg. In cases where the intravesical pressure, within 10 minutes after the administration of the test compound, decreased to 50% or less of the intravesical pressure immediately […] the administration, the test compound was judged as having inhibitory effect against urinary bladder contractions, and the time period until the intravesical pressure returned to more than 50% was defined as inhibitory time of rhythmic bladder contractions. As the vehicle for administration, physiological saline was used for test compounds 4, 7, 8, 9, 10, 13, 29, 30, 31, 33, 34, 75, 76, 79, 80, 81, 82, 84, 89, 90, 91, 93, 94, 95, 110 and 111, aqueous 10% dimethylsulfoxide (DMSO) solution was used for test compounds 11, 12, 14, 15, 16, 17, 18, 20, 21, 23, 28, 46, 47, 50, 55, 56, 57, 58, 59, 60, 61, 62, 63, 64, 65, 66, 68, 69, 70, 71, 72, 73, 74, 77, 78, 83, 85, 86, 87, 88, 92, 96, 97, 98, 99, 100, […], 103, 104, 105, 106, 107, 108 and […], aqueous 20% dimethylsulfoxide (DMSO) solution was used for test compounds 1, 2, 67 and 101, and aqueous 5% xylitol solution was used for test compounds 5 and 35. The aqueous 10% DMSO solution, aqueous 20% DMSO solution and the aqueous 5% xylitol solution per se, which may influence on the inhibitory time of rhythmic bladder contractions, were also tested at a dose of 1 ml/kg. With any of the compounds, prolongation of the inhibitory time of rhythmic bladder contractions was observed when compared with that obtained in the group to which the vehicle alone was administered.
`O=C1C2=C(CCCC2)C(=O)N1C1CC[C@@]2(O)[C@H]3Cc4ccc(O)c5c4[C@@]2(CCN3CC2CC2)[C@H]1O5` (stereo in doubt) [Compound 72, N-(17-cyclopropylmethyl-4,5α-epoxy-3,14-dihydroxymorphinan-6α-yl)-3,4,5,6-tetrahydrophthalimide]: the “Mean Inhibitory Time of Rhythmic Bladder Contractions” value (“Mean Inhibitory Time” for short) turned out to be 26.7 min.

Take `O=C1c2ccccc2C(=O)N1[C@H]1CC[C@@]2(O)[C@H]3Cc4ccc(O)c5c4[C@@]2(CCN3CC2CC2)[C@H]1O5` [Compound 66, N-(17-cyclopropylmethyl-4,5α-epoxy-3,14-dihydroxymorphinan-6α-yl)-phthalimide]: the “Mean Inhibitory Time” value worked out at 27.4 min.

Still in this test, the particulars now being: anesthetized female SD rats, intravenous, dose 0.005 mg/kg body weight.
Regarding `O=C1c2ccccc2C(=O)N1[C@@H]1CC[C@@]2(O)[C@H]3Cc4ccc(O)c5c4[C@@]2(CCN3CC2CC2)[C@H]1O5` [Compound 11, N-(17-cyclopropylmethyl-4,5α-epoxy-3,14-dihydroxy-morphinan-6β-yl)-phthalimide], the “Mean Inhibitory Time” value is given as 15.5 min.

Staying with this test, now noted: anesthetized female SD rats, intravenous, dose 0.01 mg/kg body weight.
With `O=C1Cc2ccccc2C(=O)N1[C@@H]1CC[C@@]2(O)[C@H]3Cc4ccc(O)c5c4[C@@]2(CCN3CC2CC2)[C@H]1O5` [Compound 106, 2-(17-cyclopropylmethyl-4,5α-epoxy-3,14-dihydroxy-morphinan-6β-yl)-4H-isoquinolin-1,3-dione], the “Mean Inhibitory Time” value was determined as 12.9 min.

Turning to `O=C1C2=C(CCCC2)C(=O)N1[C@@H]1CC[C@@]2(O)[C@H]3Cc4ccc(O)c5c4[C@@]2(CCN3CC2CC2)[C@H]1O5` [Compound 77, N-(17-cyclopropylmethyl-4,5α-epoxy-3,14-dihydroxy-morphinan-6β-yl)-3,4,5,6-tetrahydrophthalimide], the “Mean Inhibitory Time” value is recorded as 16.6 min.

The test is the same for the next values; noted with them: anesthetized female SD rats, intravenous, dose 0.03 mg/kg body weight.
`CC(=O)O[C@@]12CC[C@@H](N3C(=O)c4ccccc4C3=O)[C@@H]3Oc4c(O)ccc5c4[C@@]31CCN(CC1CC1)[C@@H]2C5` [Compound 91, N-(14-acetoxy-17-cyclopropylmethyl-4,5α-epoxy-3-hydroxymorphinan-6β-yl)-phthalimide]: the “Mean Inhibitory Time” value was determined as 14.7 min.

Consider `C=CCN1CC[C@]23c4c5ccc(O)c4O[C@H]2[C@H](N2Cc4cccc(F)c4C2=O)CC[C@@]3(O)[C@H]1C5` [Compound 88, 2-(17-allyl-4,5α-epoxy-3,14-dihydroxy-morphinan-6β-yl)-7-fluoro-2,3-dihydro-isoindol-1-one], for which the “Mean Inhibitory Time” value was found to be 10.7 min.

In the case of `C=CCN1CC[C@]23c4c5ccc(O)c4O[C@H]2[C@H](N2C(=O)c4ccccc4C2=O)CC[C@@]3(O)[C@H]1C5` [Compound 13, N-(17-allyl-4,5α-epoxy-3,14-dihydroxy-morphinan-6β-yl)-phthalimide], the “Mean Inhibitory Time” value worked out at 11.7 min.

On to `C=CCN1CC[C@]23c4c5ccc(O)c4O[C@H]2[C@H](N2C(=O)c4cccc(C)c4C2=O)CC[C@@]3(O)[C@H]1C5` [Compound 60, N-(17-allyl-4,5α-epoxy-3,14-dihydroxymorphinan-6β-yl)-3-methylphthalimide], for which the “Mean Inhibitory Time” value stood at 19.7 min.

Still in this test, the particulars now being: anesthetized female SD rats, intravenous, dose 0.1 mg/kg body weight.
For the compound `O=C1[C@H]2CCCC[C@H]2C(=O)N1[C@@H]1CC[C@@]2(O)[C@H]3Cc4ccc(O)c5c4[C@@]2(CCN3CC2CC2)[C@H]1O5` [Compound 69, N-(17-cyclopropylmethyl-4,5α-epoxy-3,14-dihydroxymorphinan-6β-yl)-hexahydrophthalimide], the “Mean Inhibitory Time” value amounted to 15.7 min.

Take `C=CCN1CC[C@]23c4c5ccc(O)c4O[C@H]2[C@H](N2CC4=C(CCCC4)C2=O)CC[C@@]3(O)[C@H]1C5` [Compound 84, 2-(17-allyl-4,5α-epoxy-3,14-dihydroxy-morphinan-6-yl)-2,3,4,5,6,7-hexahydro-isoindol-1-one]: the “Mean Inhibitory Time” value was 9.3 min.

On to `CN1CCN([C@@H]2CC[C@@]3(O)[C@H]4Cc5ccc(O)c6c5[C@@]3(CCN4C)[C@H]2O6)c2ccccc21` [Compound 9, 4,5α-epoxy-6β-(3,4-dihydro-1-methyl-1H-quinoxalino)-17-methyl-morphinan-3,14-diol], for which the “Mean Inhibitory Time” value worked out at 9.1 min.

On to `Nc1ccc2c(c1)C(=O)N([C@@H]1CC[C@@]3(O)[C@H]4Cc5ccc(O)c6c5[C@@]3(CCN4CC3CC3)[C@H]1O6)C2=O` [Compound 98, N-(17-cyclopropylmethyl-4,5α-epoxy-3,14-dihydroxy-morphinan-6β-yl)-4-amino-phthalimide], for which the “Mean Inhibitory Time” value was 7.2 min.

On to `C=CCN1CC[C@]23c4c5ccc(O)c4O[C@H]2[C@H](N2Cc4ccc(F)cc4C2=O)CC[C@@]3(O)[C@H]1C5` [Compound 90, 2-(17-allyl-4,5α-epoxy-3,14-dihydroxy-morphinan-6β-yl)-6-fluoro-2,3-dihydro-isoindol-1-one], for which the “Mean Inhibitory Time” value is listed as 17.6 min.

For the compound `Nc1cccc2c1C(=O)N([C@@H]1CC[C@@]3(O)[C@H]4Cc5ccc(O)c6c5[C@@]3(CCN4CC3CC3)[C@H]1O6)C2=O` [Compound 97, N-(17-cyclopropylmethyl-4,5α-epoxy-3,14-dihydroxy-morphinan-6β-yl)-3-amino-phthalimide], the “Mean Inhibitory Time” value came out at 11.2 min.

For the compound `CC(=O)O[C@@]12CC[C@@H](N3CC4=C(CCCC4)C3=O)[C@@H]3Oc4c(O)ccc5c4[C@@]31CCN(CC1CC1)[C@@H]2C5` [Compound 93, N-(14-acetoxy-17-cyclopropylmethyl-4,5α-epoxy-3-hydroxymorphinan-6β-yl)-2,3,4,5,6,7-hexahydro-isoindol-1-one], the “Mean Inhibitory Time” value turned out to be 16.0 min.

Regarding `C=CCN1CC[C@]23c4c5ccc(O)c4O[C@H]2[C@H](N2C(=O)c4ccccc4S2(=O)=O)CC[C@@]3(O)[C@H]1C5` [Compound 109, N-(17-allyl-4,5α-epoxy-3,14-dihydroxy-morphinan-6β-yl)-O-sulfonebenzimide], the “Mean Inhibitory Time” value worked out at 18.1 min.

For `O=C1[C@H]2CC=CC[C@H]2C(=O)N1[C@@H]1CC[C@@]2(O)[C@H]3Cc4ccc(O)c5c4[C@@]2(CCN3CC2CC2)[C@H]1O5` [Compound 78, N-(17-cyclopropylmethyl-4,5α-epoxy-3,14-dihydroxy-morphinan-6β-yl)-cis-1,2,3,6-tetrahydrophthalimide], the “Mean Inhibitory Time” value was 13.4 min.

For the compound `CN1CC[C@]23c4c5ccc(O)c4O[C@H]2[C@H](N2CCOc4ccccc42)CC[C@H]3[C@H]1C5` [Compound 4, 4,5α-epoxy-6β-(3,4-dihydro-2H-benzo [1,4]oxazino)-17-methyl-morphinan-3-ol], the “Mean Inhibitory Time” value is 15.6 min.

As to `CN1CC[C@]23c4c5ccc(O)c4O[C@H]2[C@H](N2CCSc4ccccc42)CC[C@H]3[C@H]1C5` [Compound 2, 4,5α-epoxy-6β-(3,4-dihydro-2H-benzo[1,4]thiazino)-17-methyl-morphinan-3-ol], the “Mean Inhibitory Time” value was found to be 15.5 min.

As to `C=CCN1CC[C@]23c4c5ccc(O)c4O[C@H]2[C@@H](N2CC4=C(CCCC4)C2=O)CC[C@@]3(O)[C@H]1C5` [Compound 85, 2-(17-allyl-4,5α-epoxy-3,14-dihydroxy-morphinan-6α-yl)-2,3,4,5,6,7-hexahydro-isoindol-1-one], the “Mean Inhibitory Time” value worked out at 6.9 min.

The same test, now with this note: anesthetized female SD rats, intravenous, dose 0.3 mg/kg body weight.
As to `O=C1C(Cc2ccccc2)CCN1[C@H]1CC[C@@]2(O)[C@H]3Cc4ccc(O)c5c4[C@@]2(CCN3CC2CC2)[C@H]1O5` (stereo partly drawn) [Compound 35, 1-(17-cyclopropylmethyl-4,5α-epoxy-3,14-dihydroxy-morphinan-6α-yl)-3-benzyl-pyrrolidin-2-one], the “Mean Inhibitory Time” value is given as 29.9 min.

Still in this test, the particulars now being: anesthetized female SD rats, intravenous, dose 1.0 mg/kg body weight.
On to `O=C1C/C(=C\C2CCCCC2)C(=O)N1[C@@H]1CC[C@@]2(O)[C@H]3Cc4ccc(O)c5c4[C@@]2(CCN3CC2CC2)[C@H]1O5` [Compound 23, N-(17-cyclopropylmethyl-4,5α-epoxy-3,14-dihydroxy-morphinan-6β-yl)-2-cyclohexylmethylidene-succinimide], for which the “Mean Inhibitory Time” value stood at 32.0 min.

Still in this test, the particulars now being: anesthetized female SD rats, intravenous, dose 3.0 mg/kg body weight.
Consider `CCN(CC)C(=O)C1CCCN([C@@H]2CC[C@@]3(O)[C@H]4Cc5ccc(O)c6c5[C@@]3(CCN4C)[C@H]2O6)C1` (stereo partly drawn) [Compound 33, 1-(4,5α-epoxy-3,14-dihydroxy-17-methyl-3-morphinan-6β-yl)-piperidin-3-carboxyl diethylamide], for which the “Mean Inhibitory Time” value is reported as 2.1 min.
